Measured values as given in patent US20070099915A1, “INHIBITORS OF THE HIV INTEGRASE ENZYME” (PFIZER INC., priority 2005, published 2007).
Where two headings read alike, the source gives them in different places.

What was measured:
[1] = target: T1, Full-length wild type HIV-1 integrase (SF1) (Human immunodeficiency virus type 1 group M subtype B, UniProt P04585); experiment: Integrase strand-transfer scintillation proximity assay; assay type: biochemical
T1 construct: made in house; host or cells: E. coli BL21 (DE3)
Excerpt: The annealed product represents preprocessed viral ds-DNA derived from the LTR U5 sequence of the viral genome. A ds-DNA control to test for non-specific interactions was made using a 3′ di-deoxy derivative of oligonucleotide #1 annealed to oligonucleotide #2. The CA overhang at the 5′ end of the non-biotinylated strand of the ds-DNA was created artificially by using a complimentary DNA oligonucleotide shortened by 2 base pairs. This configuration eliminates the requisite 3′ processing step of the integrase enzyme prior to the strand-transfer mechanism.
The annealed product had overhanging 3′ ends of poly(dA). […] The radiolabeled product was purified using a NENSORB cartridge and stored in stabilized aqueous solution (PerkinElmer).
Reagents: Streptavidin-coated polyvinyltoluene (PVT) SPA beads were purchased from Amersham Biosciences (Piscataway, N.J.). Cesium chloride was purchased from Shelton Scientific, Inc. (Shelton, Conn.). White, polystyrene, flat-bottom, non-binding surface, 96-well plates were purchased from Corning. All other buffer components were purchased from Sigma (St. Louis, Mo.) unless otherwise indicated.
Enzyme Construction: Full-length wild type HIV-1 integrase (SF1) sequence (amino acids 1-289) was constructed in a pET24a vector (Novagen, Madison, Wis.).
Enzyme Purification: Full length wild-type HIV Integrase was expressed in E. coli BL21 (DE3) cells and induced with 1 mM isopropyl-1 thio-β-D-galactopyranoside (IPTG) when cells reached an optical density between 0.8-1.0 at 600 nm. Cells were lysed by microfluidation in 50 mM HEPES pH 7.0, 75 mM NaCl, 5 mM DTT, 1 mM 4-(2-Aminoethyl)benzenesulfonylfluoride HCl (AEBSF). Lysate was then centrifuged 20 minutes at 11 k rpm in GSA rotor in Sorvall RC-5B at 4° C. Supernant was discarded and pellet resuspended in 50 mM HEPES pH 7.0, 750 mM NaCl, 5 mM DTT, 1 mM AEBSF and homogenized in a 40 mL Dounce homogenizer for 20 minutes on ice. Homogenate was then centrifuged 20 minutes at 11 k rpm in SS34 rotor in Sorvall RC-5B at 4° C. Supernant was discarded and pellet resuspended in 50 mM HEPES pH 7.0, 750 mM NaCl, 25 mM CHAPS, 5 mM DTT, 1 mM AEBSF. Preparation was then centrifuged 20 minutes at 11 k rpm in SS34 rotor in Sorvall RC-5B at 4° C.
Supernant was then diluted 1:1 with 50 mM HEPES pH 7.0, 25 mM CHAPS, 1 mM DTT, 1 mM AEBSF and loaded onto a Q-Sepharose column pre-equilibrated with 50 mM HEPES, pH 7.0, 375 mM NaCl, 25 mM CHAPS, 1 mM DTT, 1 mM AEBSF. The flow through peak was collected and NaCl diluted to 0.1 M with 50 mM HEPES pH 7.0, 25 mM CHAPS, 1 mM DTT, 0.5 mM AEBSF and loaded onto a SP-Sepharose column pre-equilibrated with 50 mM HEPES pH 7.0, 100 mM NaCl, 25 mM CHAPS, 1 mM DTT, 0.5 mM AEBSF. After washing the column with the equilibration buffer, a 100 to 400 mM NaCl gradient was run. The eluted integrase was concentrated and run on a S-300 gel diffusion column using 50 mM HEPES pH 7.0, 500 mM NaCl, 25 mM CHAPS, 1 mM DTT, 0.5 mM AEBSF. […] All columns were run in a 4° C. cold room.
Viral DNA Bead Preparation: Streptavidin-coated SPA beads were suspended to 20 mg/mL in 25 mM 3-morpholinopropanesulfonic acid (MOPS) (pH 7.2) and 1.0% NaN3. Biotinylated viral DNA was bound to the hydrated SPA beads in a batch process by combining […] of ds-DNA to 1 mg of suspended SPA beads (10 μL of 50 μM viral DNA to 1 mL of 20 mg/mL SPA beads). The mixture was incubated at 22° C. for a minimum of 20 min. with occasional mixing followed by centrifugation at 2500 rpm for 10 min.

[2] = tested on: HIV-1 RF virus in CEM-SS cells; experiment: HIV-1 cell protection assay (XTT dye reduction); assay type: cell-based
Method: Six days later, 50 μl of XTT solution (1 mg/ml XTT tetrazolium and 20 nM phenazine methosulfate) were added to the wells and the plates were reincubated for four hours. Viability, as determined by the amount of XTT formazan produced, was quantified spectrophotometrically by absorbance at 450 nm.
Data from CPE assays were expressed as the percent of formazan produced in compound-treated cells compared to formazan produced in wells of uninfected, compound-free cells. […] The 50% cytotoxicity concentration (CC50) was calculated as the concentration of compound that decreased the percentage of formazan produced in uninfected, compound-treated cells to 50% of that produced in uninfected, compound-free cells. The therapeutic index was calculated by dividing the cytotoxicity (CC50) by the antiviral activity (EC50).

[3] = strand-transfer SPA, 246 nM integrase, 50 nM host DNA, 37° C., 50 min, read-out: IC50
[4] = Human immunodeficiency virus 1, CEM-SS, 144 h
[5] = Human immunodeficiency virus 1, 144 h, RF strain of HIV-1, CEM-SS cells, XTT read-out after six days, read-out: EC50

SMILES	IC50 [1, 3] [nM]	EC50 [2, 4] [nM]	EC50 [2, 5] [nM]	IC50 [1] [nM]
CN(C(=O)c1cn(Cc2ccc(F)cc2)c2cnc3c(c12)CCN(O)C3=O)C1CCOCC1 [Example 20, 3-(4-fluorobenzyl)-7-hydroxy-N-methyl-6-oxo-N-(tetrahydro-2H-pyran-4-yl)-6,7,8,9-tetrahydro-3H-pyrrolo[2,3-c]-1,7-naphthyridine-1-carboxamide]	19	52		
CN(C1CCCC1)S(=O)(=O)c1cn(Cc2ccc(F)cc2)c2cnc3c(c12)CCN(O)C3=O [Example 21, N-cyclopentyl-3-(4-fluorobenzyl)-7-hydroxy-N-methyl-6-oxo-6,7,8,9-tetrahydro-3H-pyrrolo[2,3-c]-1,7-naphthyridine-1-sulfonamide]	905		120	
COCCOCc1cn(Cc2ccc(F)cc2)c2cnc3c(c12)CCN(O)C3=O [Example 22, 3-(4-fluorobenzyl)-7-hydroxy-1-[(2-methoxyethoxy)methyl]-3,7,8,9-tetrahydro-6H-pyrrolo[2,3-c]-1,7-naphthyridin-6-one]	14		1.5	
O=C1c2ncc3c(c(CN4CCCC4)cn3Cc3ccc(F)cc3)c2CCN1O [Example 23, 3-(4-fluorobenzyl)-7-hydroxy-1-(pyrrolidin-1-ylmethyl)-3,7,8,9-tetrahydro-6H-pyrrolo[2,3-c]-1,7-naphthyridin-6-one]		4		27
O=C1c2ncc3c(c(CO)cn3Cc3ccc(F)cc3)c2CCN1O [Example 25, 3-(4-fluorobenzyl)-7-hydroxy-1-(hydroxymethyl)-3,7,8,9-tetrahydro-6H-pyrrolo[2,3-c]-1,7-naphthyridin-6-one]		3		12
O=c1c2ncc3c(c(CO)cn3Cc3ccc(F)cc3)c2ccn1O [Example 26, 3-(4-fluorobenzyl)-7-hydroxy-1-(hydroxymethyl)-3H-pyrrolo[2,3-c][1,7]naphthyridin-6(7H)-one]	38		3	
CN1CCN(Cc2cn(Cc3ccc(F)cc3)c3cnc4c(c23)CCN(O)C4=O)CC1 [Example 29, 3-(4-fluorobenzyl)-7-hydroxy-1-[(4-methylpiperazin-1-yl)methyl]-3,7,8,9-tetrahydro-6H-pyrrolo[2,3-c]-1,7-naphthyridin-6-one]	28		3	
O=C1c2ncc3c(c(COC4CCOCC4)cn3Cc3ccc(F)cc3)c2CCN1O [Example 30, 3-(4-fluorobenzyl)-7-hydroxy-1-[(tetrahydro-2H-pyran-4-yloxy)methyl]-3,7,8,9-tetrahydro-6H-pyrrolo[2,3-c]-1,7-naphthyridin-6-one]	42		5	
CCOCCOCc1cn(Cc2ccc(F)cc2)c2cnc3c(c12)CCN(O)C3=O [Example 31, 1-[(2-ethoxyethoxy)methyl]-3-(4-fluorobenzyl)-7-hydroxy-3,7,8,9-tetrahydro-6H-pyrrolo[2,3-c]-1,7-naphthyridin-6-one]	33		5	
C[C@H](CO)NCc1cn(Cc2ccc(F)cc2)c2cnc3c(c12)CCN(O)C3=O [Example 33, 3-(4-fluorobenzyl)-7-hydroxy-1-({[(1R)-2-hydroxy-1-methylethyl]amino}methyl)-3,7,8,9-tetrahydro-6H-pyrrolo[2,3-c]-1,7-naphthyridin-6-one]	21		13	
CC(NCc1cn(Cc2ccc(F)cc2)c2cnc3c(=O)n(O)ccc3c12)c1ccc(Br)cc1 (stereo not shown) [Example 36, 1-({[1-(4-bromophenyl)ethyl]amino}methyl)-3-(4-fluorobenzyl)-7-hydroxy-3,7-dihydro-6H-pyrrolo[2,3-c]-1,7-naphthyridin-6-one]	10		3	
O=C1c2ncc3c(c(CN4CCCC(F)(F)C4)cn3Cc3ccc(F)cc3)c2CCN1O [Example 39]	10.3		0.279	
COCCN(Cc1cn(Cc2ccc(F)cc2)c2cnc3c(c12)CCN(O)C3=O)C(C)(C)C [Example 40, 1-{[tert-butyl(2-methoxyethyl)amino]methyl}-3-(4-fluorobenzyl)-7-hydroxy-3,7,8,9-tetrahydro-6H-pyrrolo[2,3-c]-1,7-naphthyridin-6-one]	24.4		4.6	
CN(C)C(=O)[C@@H]1CCCN1Cc1cn(Cc2ccc(F)cc2)c2cnc3c(c12)CCN(O)C3=O [Example 41, 1-{[3-(4-fluorobenzyl)-7-hydroxy-6-oxo-6,7,8,9-tetrahydro-3H-pyrrolo[2,3-c]-1,7-naphthyridin-1-yl]methyl}-N,N-dimethyl-L-prolinamide]	28.1		29	
Cc1cc2c(ncc3c2c(CN(C)C)cn3Cc2ccc(F)cc2)c(=O)n1O [Example 42, 1-[(dimethylamino)methyl]-3-(4-fluorobenzyl)-7-hydroxy-8-methyl-3,7-dihydro-6H-pyrrolo[2,3-c]-1,7-naphthyridin-6-one]	8.1		0.43	
Cc1cc2c(ncc3c2c(CN2CCOCC2)cn3Cc2ccc(F)cc2)c(=O)n1O [Example 43, 3-(4-fluorobenzyl)-7-hydroxy-8-methyl-1-(morpholin-4-ylmethyl)-3,7-dihydro-6H-pyrrolo[2,3-c]-1,7-naphthyridin-6-one]	9.36		0.41	
Cc1c(CN2CCOCC2)c2c(ncc3c2ccn3Cc2ccc(F)cc2)c(=O)n1O [Example 44, 3-(4-fluorobenzyl)-7-hydroxy-8-methyl-9-(morpholin-4-ylmethyl)-3,7-dihydro-6H-pyrrolo[2,3-c]-1,7-naphthyridin-6-one]			0.45	9.07
C[C@@H]1CN(Cc2cn(Cc3ccc(F)cc3)c3cnc4c(c23)CCN(O)C4=O)C[C@H](C)O1 [Example 45, 1-{[(2R,6S)-2,6-dimethylmorpholin-4-yl]methyl}-3-(4-fluorobenzyl)-7-hydroxy-3,7,8,9-tetrahydro-6H-pyrrolo[2,3-c]-1,7-naphthyridin-6-one]	9.07		0.45	
Cc1cc2c(ncc3c2c(CN2CCCC2)cn3Cc2ccc(F)cc2)c(=O)n1O [Example 46, 3-(4-fluorobenzyl)-7-hydroxy-8-methyl-1-(pyrrolidin-1-ylmethyl)-3,7-dihydro-6H-pyrrolo[2,3-c]-1,7-naphthyridin-6-one]	8.35		1.1	
Cc1cc2c(ncc3c2c(CO)cn3Cc2ccc(F)cc2)c(=O)n1O [Example 47, 3-(4-fluorobenzyl)-7-hydroxy-1-(hydroxymethyl)-8-methyl-3,7-dihydro-6H-pyrrolo[2,3-c]-1,7-naphthyridin-6-one]		0.39		6
